We go through 1 compound from US8609725B2, “Method of using beta-hydroxy-beta-methylbutyrate for reducing tumor growth rate” (Abbott Laboratories, priority 2004, dated 2013).

Test [1] deals with proteasome 20S α subunits, β subunits and p42. As to the kind of experiment: Western blot of PIF-induced proteasome subunit expression in C2C12 myotubes. The conditions noted are these: 50 μM; PIF at 4.2 and 10 nM. The format is cell-based, murine. As to the method: (§1) For Western blot analysis, cytosolic protein (2 to 5 μg) obtained for the above assay were resolved on 10% SDS-PAGE and transferred to 0.45 μm nitrocellulose membrane, which had been blocked with 5% Marvel in PBS, at 4° C. overnight. The primary antibodies were used at a dilution of 1:100 (anti-actin and PKCα); 1:500 (anti-ERK1 and 2); 1:1000 (anti-20S proteasome β-subunit and I-κBα); 1:1500 (anti-20S proteasome α-subunit) or 1:5000 (anti-p42), while the secondary antibodies were used at a dilution of 1:2000. Incubation was carried out for 2 h at room temperature and development was by ECL. Loading was quantitated by actin concentration.
Background: In western blotting, separated proteins are transferred to a membrane and probed.

The test system of test [2] is I-κBα. Put plainly: PIF-induced degradation of I-κBα in murine myotubes. The format is cell-based. The conditions noted are these: 50 μM HMB. As to the method:
as §1, with “concentration. The in vitro study described in Example III above also evaluated the effect of HMB on molecules that are key mediators in the pathway of inflammation. This experiment was conducted as described in Example III.” for “concentration.”

Test [3] deals with gastrocnemius muscle of mice bearing the MAC16 tumor. As to the kind of experiment: Protein synthesis and degradation in gastrocnemius muscle of MAC16 mice. The class given is in vivo. As to the method: Protein synthesis was measured by the incorporation of L-[4-3H]phenylalanine during a 2-hour period in which isolated gastrocnemius muscles were incubated at 37° C. in RPMI 1640 without phenol red and saturated with O2/CO2 (19:1). After incubation muscles were rinsed in nonradioactive medium, blotted dry, and homogenized in 4 mL 2% perchloric acid. The rate of protein synthesis was calculated by dividing the protein-bound radioactivity by the acid-soluble (unbound) material. For protein degradation assays animals from the same group as used to measure protein synthesis were given i.p. 0.4 mmol/L L-[4-3H]phenylalanine in PBS (100 μl) 24 hours prior to the assay. Isolated gastrocnemius muscles were extensively washed with PBS and RPMI 1640 before measuring the release of radioactivity into RPMI 1640 over a 2-hour period. The protein-bound activity was determined by homogenizing the muscles in 2% perchloric acid and determining the non-acid-soluble radioactivity (radioactivity in the precipitate). The rate of protein degradation was calculated by dividing the amount of [^3H]phenylalanine radioactivity released into the incubation medium during the 2-hour incubation period by the specific activity of protein-bound [^3H] phenylalanine.

Test [4] deals with rats and chicks. The conditions noted are these: cited from earlier work.
Test [5] concerns the target T1, PKCα (Mus musculus, UniProt P20444).
T1 construct: PIF stimulates translocation of PKCα from the cytoplasm to the plasma membrane; endogenous in cells; host or cells: murine myotubes (C2C12)
As to the kind of experiment: PIF-stimulated translocation of PKCα from cytoplasm to plasma membrane in murine myotubes. The class given is cell-based. As to the method: as §1
(§2) The in vitro study described in Example III above also evaluated the effect of HMB on molecules that are key mediators in the pathway of inflammation. This experiment was conducted as described in Example III.

The subject of test [6] is 20S proteasome β-subunits. As to the kind of experiment: Western blotting of 20S proteasome β-subunits in gastrocnemius muscle of MAC16 mice. The format is in vivo, NMRI mice.
Test [7] deals with p42, ATPase subunit of the 19S regulator. As to the kind of experiment: Western blotting of p42 in gastrocnemius muscle of MAC16 mice. The format is in vivo, NMRI mice.
Test [8] has as its system p42/44 MAPK (ERK1, ERK2). As to the kind of experiment: PIF-induced phosphorylation of ERK 1/2 (p42/44 MAPK) in murine myotubes. The class given is cell-based. As for the experimental part: as §1, §2
Test [9] has as its system ubiquitin-conjugating enzyme, E214k. As to the kind of experiment: Western blotting of E214k in gastrocnemius muscle of MAC16 mice. The class given is in vivo, NMRI mice. The conditions noted are these: HMB 0.25 g/kg, EPA 0.6 g/kg or combination, 3 days. As for the experimental part: For Western blotting samples of soleus muscle cytosolic protein (2 to 5 μg), obtained from the above assay, were resolved on 10% SDS-PAGE and transferred to 0.45 μm nitrocellulose membrane (HybondTM, Amersham Life Science Products, Bucks, United Kingdom), which had been blocked with 5% Marvel in PBS. The primary antibodies for MSS1 and p42 were used at a dilution of 1:5000, for 20S proteasome α-subunits at 1:1500 and for β-subunits at 1:1000, while the antibody for […] was used at a dilution of 1:500. The secondary antibodies were used at a dilution of 1:2000. Mouse monoclonal antibodies to 20S proteasome subunits a 1, 2, 3, 5, 6 and 7 (clone MCP 231), 20S proteasome subunit β3 (HC10), 19S regulator ATPase subunit […]1; clone MSS1-104) and 19S regulator ATPase subunit Rpt 4 ([…], p42; clone p42-23) were purchased from Affiniti Research Products, Exeter, United Kingdom. Rabbit polyclonal antisera to ubiquitin-conjugating enzyme E2 (anti-UBC2 antibody) was a gift from Dr. Simon Wing, McGill University, Montreal, Quebec, Canada. Peroxidase-conjugated goat anti-rabbit and rabbit anti-mouse secondary antibodies were from Dako Ltd., Cambridge, United Kingdom. Incubation was carried out for 2 h at room temperature, and developed by chemiluminescence (ECL; Amersham).

The test system of test [10] is phospholipase A (PLA). As to the kind of experiment: Arachidonic acid release / PLA activation. The class given is cell-based, murine. The conditions noted are these: mechanism statement. As to the method:
For measurement of arachidonic acid release, myotubes in six-well multi dishes containing 2 ml DMEM with 2% HS were labeled for 24 h with 10 μM arachidonic acid (containing 1 μCi of [^3H] arachidonate/ml) (Smith, H. et al. Effect of a cancer cachectic factor on protein synthesis/degradation in murine C2C12 myoblasts: Modulation by eicosapentaenoic acid. Cancer Res., 59: 5507-5513, 1999). Cells were then washed extensively with PBS to remove traces of unincorporated [^3H] arachidonate and either EPA or HMB was added 2 h prior to PIF. After a further 24 h 1 ml of medium was removed to determine the radioactivity released.

Where [11] appears, read: HMB 0.25 and 2.5 g/kg daily p.o., 3 days, vs PBS control.
Where [12] appears, read: avg., 1996 abstract, normal rats and chicks.
Setting [13] is: HMB 0.25 g/kg, EPA 0.6 g/kg or combination, 3 days.

In the case of `CC(C)(O)CC(=O)O` [HMB, beta-hydroxy-beta-methylbutyric acid], the “attenuation of PIF-increased expression of proteasome 20S α subunits, β subunits and p42” value in test [1] is given as “attenuated”. Further, the “attenuation of I-κBα degradation in the presence of PIF” value in test [2] was “effectively attenuate”. For the same compound, the “protein degradation in gastrocnemius muscle” value in test [3] (setting [11]) was “attenuated”. Also, the “protein synthesis in gastrocnemius muscle” value in test [3] (setting [11]) is “significantly increased”. Besides, the “increase in the ratio of protein synthesis to protein degradation in muscle” value in test [3] (HMB 0.25 g/kg) is given as 14 fold; in [3] (HMB 2.5 g/kg), 32 fold. The “change of protein breakdown” value in test [4] (setting [12]) is recorded as −18%. Moreover, the “stimulation of protein synthesis” value in [4] (setting [12]) is 6%. Also, the “effect on protein synthesis” value in test [4] (later paper (2000), same model in rats and chicks) was “no significant effect”. Moreover, the “attenuation of PIF-stimulated translocation of PKCα” value was “less effective” in [5] (25 μM HMB) and “effectively attenuated” in [5] (50 μM). Also, the “expression of 20S proteasome β-subunits” value in test [6] (setting [13]) is listed as “attenuated”. Besides, the “reduction of protein expression of 20S β-subunits” value in [6] (summary of Examples I-IV) is reported as “at least 50%”. In [7] (setting [13]), the “expression of p42” value is given as “equally effective”. Besides, the “reduction of protein expression of p42” value in test [7] (summary of Examples I-IV) is on record as “at least 50%”. The entries for the “attenuation of PIF-induced phosphorylation of p42/44” value in [8] (25 μM HMB) and in test [8] (50 μM) were “not HMB at 25 μM” and “completely attenuated”, respectively. Moreover, the “expression of E214k” value in test [9] was “reduced”. The “activation of PLA or release of AA” value in test [10] is on record as “not preventing”.
